Experimental data as given in patent EP4691468A1, “PHARMACEUTICAL COMPOSITION FOR TREATING INFLAMMATORY BOWEL DISEASE” (EA Pharma Co., Ltd., priority 2023, dated 2024).
Where “and” joins values, the source holds several entries; their conditions need not be identical. Equal entries are not always repeated. Where two headings read alike, the source gives them in different places.

Assays:
[1] = for 24-Hour Post-Dose Trough Values of Compound (2) after Repeated Administration / Average Plasma Concentrations of Compound (2) on Day 10 of Repeated Administration: Compound (1) 400 mg once daily L-SEDDS
Method: (§1) A phase 1 clinical trial was conducted to evaluate the safety, tolerability, and pharmacokinetics of Compound (1) when orally administered to healthy adult males.
(§2) This clinical trial was a single-center, randomized, double-blind, placebo-controlled, single and multiple ascending dose study with the primary objective of evaluating the safety and tolerability of Compound (1) when orally administered to healthy adult males.
(§3) The subjects in each cohort consisted of 8 people, of which 6 were assigned to Compound (1) and 2 were assigned to placebo, and they were administered the drug.
Day 8, when repeated administration was started, corresponds to administration day 1 (Day 1), and day 17 corresponds to administration day 10 (Day 10).
(§4) The plasma concentration of Compound (2) was measured using a validated measurement method. Specifically, plasma was separated from collected blood and processed, and then the plasma concentration was measured by an LC/MS/MS apparatus.
For twice-daily administration of C-SEDDS, blood was further collected at 13, 14, 14.5, and 16 hours later to quantify Compound (2).

[2] = Phase 1 single-dose administration study: plasma concentration of Compound (2) by LC/MS/MS; conditions: oral, single dose
Method: as §1, §2, §3, §4
Compound (1) was orally administered once to 6 healthy adult males per dose and dosage form at doses of 6, 20, 100, 200, and 400 mg in the form of hard capsules (CAP), liquid self-emulsifying drug delivery system (L-SEDDS), or soft capsule self-emulsifying drug delivery system (C-SEDDS).

[3] = Measured Value, Repeated, Once daily, 400/L-SEDDS, day 10

## Cc1cc(=O)n(-c2ccc(C[C@H](NC(=O)c3cc(F)c(NS(=O)(=O)c4ccc(NC(=O)C(C)(C)C)cc4)cc3F)C(=O)O)cn2)c(=O)n1C [Compound (2)]
[1]; Day 1
  24-Hour Post-Dose Trough Values of Compound (2) after Repeated Administration: 5.092 ng/mL
[1]; Day 2
  24-Hour Post-Dose Trough Values of Compound (2) after Repeated Administration: 10.90 ng/mL
[1]; Day 3
  24-Hour Post-Dose Trough Values of Compound (2) after Repeated Administration: 10.60 ng/mL
[1]; Day 4
  24-Hour Post-Dose Trough Values of Compound (2) after Repeated Administration: 14.21 ng/mL
[1]; Day 5
  24-Hour Post-Dose Trough Values of Compound (2) after Repeated Administration: 19.56 ng/mL
[1]; Day 6
  24-Hour Post-Dose Trough Values of Compound (2) after Repeated Administration: 17.27 ng/mL
[1]; Day 7
  24-Hour Post-Dose Trough Values of Compound (2) after Repeated Administration: 19.85 ng/mL
[1]; Day 8
  24-Hour Post-Dose Trough Values of Compound (2) after Repeated Administration: 22.03 ng/mL
[1]; Day 9
  24-Hour Post-Dose Trough Values of Compound (2) after Repeated Administration: 22.80 ng/mL
[1]; Day 10
  24-Hour Post-Dose Trough Values of Compound (2) after Repeated Administration: 13.04 ng/mL
[1]; Day 10, Time 0.5 h
  Average Plasma Concentrations of Compound (2) on Day 10 of Repeated Administration: 23.82 ng/mL
[1]; Day 10, Time 1 h
  Average Plasma Concentrations of Compound (2) on Day 10 of Repeated Administration: 43.52 ng/mL
[1]; Day 10, Time 1.5 h
  Average Plasma Concentrations of Compound (2) on Day 10 of Repeated Administration: 44.71 ng/mL
[1]; Day 10, Time 2 h
  Average Plasma Concentrations of Compound (2) on Day 10 of Repeated Administration: 40.35 ng/mL
[1]; Day 10, Time 2.5 h
  Average Plasma Concentrations of Compound (2) on Day 10 of Repeated Administration: 34.19 ng/mL
[1]; Day 10, Time 3 h
  Average Plasma Concentrations of Compound (2) on Day 10 of Repeated Administration: 32.09 ng/mL
[1]; Day 10, Time 4 h
  Average Plasma Concentrations of Compound (2) on Day 10 of Repeated Administration: 28.31 ng/mL
[1]; Day 10, Time 5 h
  Average Plasma Concentrations of Compound (2) on Day 10 of Repeated Administration: 25.14 ng/mL
[1]; Day 10, Time 6 h
  Average Plasma Concentrations of Compound (2) on Day 10 of Repeated Administration: 17.77 ng/mL
[1]; Day 10, Time 7 h
  Average Plasma Concentrations of Compound (2) on Day 10 of Repeated Administration: 14.77 ng/mL
[1]; Day 10, Time 8 h
  Average Plasma Concentrations of Compound (2) on Day 10 of Repeated Administration: 13.57 ng/mL
[1]; Day 10, Time 12 h
  Average Plasma Concentrations of Compound (2) on Day 10 of Repeated Administration: 16.86 ng/mL
[1]; Day 10, Time 15 h
  Average Plasma Concentrations of Compound (2) on Day 10 of Repeated Administration: 11.33 ng/mL
[1]; Day 10, Time 21 h
  Average Plasma Concentrations of Compound (2) on Day 10 of Repeated Administration: 15.69 ng/mL
[1]; Day 10, Time 24 h
  Average Plasma Concentrations of Compound (2) on Day 10 of Repeated Administration: 13.04 ng/mL
[1]; Initial Value
  24-Hour Post-Dose Trough Values of Compound (2) after Repeated Administration: 0.000 ng/mL
[1]; L-SEDDS 400 mg once daily, versus single-dose administration
  increase of plasma concentration (trough value) after 24 hours on the 10th day of repeated administration: more than threefold
[1]; [3]
  Judgment Trough Value: A (IC90 (6.9 ng/mL) or higher)
  Plasma Concentration Trough Value: 13.04 ng/mL and 13.0 ng/mL
[2]; Compound (1) 6 mg CAP, Time 1 h
  Average Plasma Concentrations of Compound (2) after Single-Dose Administration: 0.121 ng/mL
[2]; Compound (1) 6 mg CAP, Time 1.5 h
  Average Plasma Concentrations of Compound (2) after Single-Dose Administration: 0.350 ng/mL
[2]; Compound (1) 6 mg CAP, Time 2 h
  Average Plasma Concentrations of Compound (2) after Single-Dose Administration: 0.448 ng/mL
[2]; Compound (1) 6 mg CAP, Time 2.5 h
  Average Plasma Concentrations of Compound (2) after Single-Dose Administration: 0.536 ng/mL
[2]; Compound (1) 6 mg CAP, Time 3 h
  Average Plasma Concentrations of Compound (2) after Single-Dose Administration: 0.554 ng/mL
[2]; Compound (1) 6 mg CAP, Time 4 h
  Average Plasma Concentrations of Compound (2) after Single-Dose Administration: 0.590 ng/mL
[2]; Compound (1) 6 mg CAP, Time 5 h
  Average Plasma Concentrations of Compound (2) after Single-Dose Administration: 0.424 ng/mL
[2]; Compound (1) 6 mg CAP, Time 6 h
  Average Plasma Concentrations of Compound (2) after Single-Dose Administration: 0.313 ng/mL
[2]; Compound (1) 6 mg CAP, Time 7 h
  Average Plasma Concentrations of Compound (2) after Single-Dose Administration: 0.209 ng/mL
[2]; Compound (1) 6 mg CAP, Time 8 h
  Average Plasma Concentrations of Compound (2) after Single-Dose Administration: 0.127 ng/mL
[2]; Compound (1) 6 mg CAP, Time 12 h
  Average Plasma Concentrations of Compound (2) after Single-Dose Administration: 0.075 ng/mL
[2]; Compound (1) 20 mg CAP, Time 1 h
  Average Plasma Concentrations of Compound (2) after Single-Dose Administration: 0.211 ng/mL
[2]; Compound (1) 20 mg CAP, Time 1.5 h
  Average Plasma Concentrations of Compound (2) after Single-Dose Administration: 0.585 ng/mL
[2]; Compound (1) 20 mg CAP, Time 2 h
  Average Plasma Concentrations of Compound (2) after Single-Dose Administration: 0.768 ng/mL
[2]; Compound (1) 20 mg CAP, Time 2.5 h
  Average Plasma Concentrations of Compound (2) after Single-Dose Administration: 1.023 ng/mL
[2]; Compound (1) 20 mg CAP, Time 3 h
  Average Plasma Concentrations of Compound (2) after Single-Dose Administration: 0.926 ng/mL
[2]; Compound (1) 20 mg CAP, Time 4 h
  Average Plasma Concentrations of Compound (2) after Single-Dose Administration: 0.817 ng/mL
[2]; Compound (1) 20 mg CAP, Time 5 h
  Average Plasma Concentrations of Compound (2) after Single-Dose Administration: 0.702 ng/mL
[2]; Compound (1) 20 mg CAP, Time 6 h
  Average Plasma Concentrations of Compound (2) after Single-Dose Administration: 0.567 ng/mL
[2]; Compound (1) 20 mg CAP, Time 7 h
  Average Plasma Concentrations of Compound (2) after Single-Dose Administration: 0.533 ng/mL
[2]; Compound (1) 20 mg CAP, Time 8 h
  Average Plasma Concentrations of Compound (2) after Single-Dose Administration: 0.507 ng/mL
[2]; Compound (1) 20 mg CAP, Time 12 h
  Average Plasma Concentrations of Compound (2) after Single-Dose Administration: 0.351 ng/mL
[2]; Compound (1) 20 mg CAP, Time 15 h
  Average Plasma Concentrations of Compound (2) after Single-Dose Administration: 0.338 ng/mL
[2]; Compound (1) 20 mg CAP, Time 21 h
  Average Plasma Concentrations of Compound (2) after Single-Dose Administration: 0.339 ng/mL
[2]; Compound (1) 20 mg CAP, Time 24 h
  Average Plasma Concentrations of Compound (2) after Single-Dose Administration: 0.245 ng/mL
[2]; Compound (1) 100 mg CAP, Time 1 h
  Average Plasma Concentrations of Compound (2) after Single-Dose Administration: 0.556 ng/mL
[2]; Compound (1) 100 mg CAP, Time 1.5 h
  Average Plasma Concentrations of Compound (2) after Single-Dose Administration: 1.274 ng/mL
[2]; Compound (1) 100 mg CAP, Time 2 h
  Average Plasma Concentrations of Compound (2) after Single-Dose Administration: 1.864 ng/mL
[2]; Compound (1) 100 mg CAP, Time 2.5 h
  Average Plasma Concentrations of Compound (2) after Single-Dose Administration: 2.343 ng/mL
[2]; Compound (1) 100 mg CAP, Time 3 h
  Average Plasma Concentrations of Compound (2) after Single-Dose Administration: 2.246 ng/mL
[2]; Compound (1) 100 mg CAP, Time 4 h
  Average Plasma Concentrations of Compound (2) after Single-Dose Administration: 2.465 ng/mL
[2]; Compound (1) 100 mg CAP, Time 5 h
  Average Plasma Concentrations of Compound (2) after Single-Dose Administration: 2.331 ng/mL
[2]; Compound (1) 100 mg CAP, Time 6 h
  Average Plasma Concentrations of Compound (2) after Single-Dose Administration: 1.906 ng/mL
[2]; Compound (1) 100 mg CAP, Time 7 h
  Average Plasma Concentrations of Compound (2) after Single-Dose Administration: 1.498 ng/mL
